Patent US11185075B2, “Herbicidal phenyltriazolinones” (BASF SE, priority 2016, dated 2021)

Legend:
Format in all cases: in vivo
Alopecurus myosuroides = experiment: greenhouse post-emergence herbicidal test; conditions: scale from 0 to 100
Excerpt: (§1) The seeds of the test plants were sown separately for each species. For the post-emergence treatment, the test plants were first grown to a height of 3 to 15 cm, depending on the plant habit, and only then treated with the active ingredients which had been suspended or emulsified in water. For this purpose, the test plants were either sown directly and grown in the same containers, or they were first grown separately as seedlings and transplanted into the test containers a few days prior to treatment. Depending on the species, the plants were kept at 10-25° C. or 20-35° C., respectively. The test period extended over 2 to 4 weeks. During this time, the plants were tended, and their response to the individual treatments was evaluated. Evaluation was carried out using a scale from 0 to 100. 100 means no emergence of the plants, or complete destruction of at least the aerial moieties, and 0 means no damage, or normal course of growth. A good herbicidal activity is given at values of at least 70 and a very good herbicidal activity is given at values of at least 85.

Avena fatua = experiment: greenhouse post-emergence herbicidal test; conditions: 16 g/ha, scale from 0 to 100
Excerpt: as §1

Lolium multiflorum = experiment: greenhouse post-emergence herbicidal test; conditions: 4 g/ha, scale from 0 to 100
Excerpt: as §1

Amaranthus retroflexus = experiment: greenhouse pre-emergence herbicidal test; conditions: 16 g/ha, scale from 0 to 100
Excerpt: (§2) The seeds of the test plants were sown separately for each species. For the pre-emergence treatment, the active ingredients, which had been suspended or emulsified in water, were applied directly after sowing by means of finely distributing nozzles. The containers were irrigated gently to promote germination and growth and subsequently covered with transparent plastic hoods until the plants had rooted. This cover caused uniform germination of the test plants, unless this had been impaired by the active ingredients. Depending on the species, the plants were kept at 10-25° C. or 20-35° C., respectively. The test period extended over 2 to 4 weeks. During this time, the plants were tended, and their response to the individual treatments was evaluated. Evaluation was carried out using a scale from 0 to 100. 100 means no emergence of the plants, or complete destruction of at least the aerial moieties, and 0 means no damage, or normal course of growth. A good herbicidal activity is given at values of at least 70 and a very good herbicidal activity is given at values of at least 85.

Setaria faberi = experiment: greenhouse pre-emergence herbicidal test; conditions: 16 g/ha, scale from 0 to 100
Excerpt: as §2

Compound	damages, Alopecurus myosuroides (Alopecurus myosuroides; 4 g/ha)	damages, Alopecurus myosuroides (Alopecurus myosuroides; 16 g/ha)	damages, Avena fatua (Avena fatua)	damages, Lolium multiflorum (Lolium multiflorum)	damages, Amaranthus retroflexus (Amaranthus retroflexus)	damages, Setaria faberi (Setaria faberi)
CCOC(=O)COc1ccccc1Oc1cc(-n2nc(C)n(C(F)F)c2=O)c(F)cc1Cl [Example 3, Ethyl 2-[2-[2-chloro-5-[4-(difluoromethyl)-3-methyl-5-oxo-1,2,4-triazol-1-yl]-4-fluoro-phenoxy]phenoxy]acetate]	70	95	70	90	85	85
CCOC(=O)COc1cccc(Oc2cc(-n3nc(C)n(C(F)F)c3=O)c(F)cc2Cl)c1 [compound A]	–	55	20	–	45	0
CCOC(=O)COc1ccc(Oc2cc(-n3nc(C)n(C(F)F)c3=O)c(F)cc2Cl)cc1 [compound B]	30	–	–	70	45	0
